Assay results from patent publication US20020142347A1, “Biosensor” (BIOSENSOR ApS, priority 2000, published 2002).
Where two headings read alike, the source gives them in different places. One block for each molecule: values may come before it.

Columns and labels:
[1] = target: T1, FACI53 (Bos taurus, UniProt P07107, A54C); assay: Fluorescence emission change of FACI-53 on titration with CoA and acyl-CoA esters; format: binding, bovine
T1 construct: badan (6-bromoacetyl-2-dimethylaminonaphthalene) fluorophore on the introduced Cys-53; made in house; host or cells: E. coli BL21(DE3)pLysS, pET3a vector
T1 sequence (P07107 2-87 A54C): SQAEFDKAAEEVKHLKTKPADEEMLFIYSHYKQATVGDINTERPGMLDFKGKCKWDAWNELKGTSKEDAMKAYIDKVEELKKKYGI
Experimental: (§1) Quantitative determination of binding affinities (KD) were performed by isothermal titration micro calorimetry as previously described (Faergeman et. al., 1996; Biochemistry 35, 14118-14126). Qualitative evaluation of relative binding affinities were determined by isoelectrical focusing using the Pharmacia Fast Gel system according to the prescriptions given by the manufacture. Fluorescence emission changes induced by acyl-CoA binding to badan modified protein were determined as follows: 5 μl portions of acyl-CoAs were added from stock solutions disolved in binding buffer, (10 mM Hepes, 150 mM NaCL, 1 mM NaHPO4, pH 7.4) containing 3.4 μM Badan derivatized protein to a 1 ml 3.4 μM solution of the Badan derivatized ACBP in the same buffer. The fluorescence emission was measured on a SPEX FLOUROLOG (Industries Inc, Edison N.J., USA) with excitation at 400 nm and emission scan from 400 nm to 550 nm. The concentration of acyl-CoA in the aqueous phase was determined from the fluorescence emission sensitivities at 495 and 470 nm repectively essentially by the method described by (Grynkiewickz et. al.,1985, J. Biol. Chem. 260, 3440-3450) according to which:
(§2) Fluorescence titration emission spectra from 415 nm to 550 nm (excitation at 400 nm) were performed for CoA, C4:0-, C8:0-, C12:0-, C16:0-, and C20:0-CoA with all four mutated and badan modified proteins.
Titration of FACI-53 dissolved in binding buffer with the above mentioned acyl-CoA esters produced a smooth downward shift in fluorescence emission maximum from 525 nm when no ligand was present to 508, 503, 490, 492, 496 and 514 with increasing concentrations of CoA, C4:0-, C8:0-, C12:0-, C16:0- and C20:0-CoA respectively.

[2] = target: T2, FACI-24 (Bos taurus, UniProt P07107, M25C); assay: Fluorescence titration equilibrium binding analysis of CoA and acyl-CoA esters to FACI-24; design: species or system bovine; settings: FACI-24 (1.5 μM) titrated with increasing CoA and acyl-CoA concentration; fitted binding curves, emission 460 nm; read-out: Kd (nM) ± S.E.
T2 construct: made in house; host or cells: E. coli BL21(DE3)pLysS, pET3a vector
T2 sequence (P07107 2-87 M25C): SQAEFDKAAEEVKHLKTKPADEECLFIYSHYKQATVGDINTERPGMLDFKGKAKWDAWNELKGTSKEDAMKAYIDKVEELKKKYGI
Experimental: Development of a mathematical expression describing the relationship between acyl-CoA concentration and FACI-24 fluorescence was performed essentially as by Richieri et al 1992, J Biol Chem, 267:23495-23501. However, where ligand binding to ADIFAB induces both a fluorescence intensity increase around 505 nm and a fluorescence intensity decrease around 432 nm, ligand binding to FACI-24 only causes an increase in fluorescence around 460 nm.
Derivatisation of an expression for the fluorescence value as a function of the acyl-coA concentration was done using the Scatchard equation as a starting point: [formula]
which has been used to fit the titration data.
The curves represent the best fit analysis from two independent experiment calculated and normalized as described above. The FACI-24 binding affinity increases dramatically when the acyl-chain length increases from C8 to C10 and C12, a smaller but significant drop in Kd is seen by increasing chain length from C12 to C14. C14 to C18 saturated acyl-CoA esters and C18:1-CoA binds with similar and very high affinities to FACI-24. In >0.1 M salt, FACI-24 binds acyl-CoAs with higher affinity and similar specificity as native unmodified bovine ACBP. The Kd for binding of C12-CoA and C16-CoA to native ACBP is 40 and 2.0 nM, respectively (Fulcery et al Biochemical, 1997, 325:423-428; Færgeman et al 1996, Biochemistry, 35:14118-14126). FACI-24 is highly specific for binding long-chain acyl-CoA esters.
(§3) Titration of FACI with acyl-CoAs was done using a SPEX FLOUROLOG (Industries Inc, Edison N.J., USA) with excitation at 387 nm and emission at 460 nm, with both excitation and emission slits set to 4.5 nm. FACI (0.5-4.5 uM, as indicated) was dissolved in 1.5 ml binding buffer (10 mM HEPES 150 mM NaCl, 5 mM KCl, 1 mM Na2HPO4, pH 7.4) and titrated with a 10 μM acyl-CoA dissolved in binding buffer, with or without FACI added, as indicated. Fluorescence emission values (counts per second) measured without FACI added to the ligand stock solution were corrected for titrand dilution.
Up to four parameters were fitted in this way, these were B, representing the point of saturation on the X axis, H, representing the maximum fluorescence, i.e. the fluorescence at saturating concentration of acyl-CoA, L, the minimum fluorescence value, i.e. the fluorescence of FACI-24 alone in buffer, and K, the Kd value lor the acyl-CoA in question. Initial estimates for the fittable parameters were typically: B=1, H=maximum fluorescence value measured, L=minimum fluorescence value measured (at acyl-CoA-concentration=0), and K as judged from the raw data, typically from 0.0001 uM to 0.1 uM for acyl-CoA longer than C10:0-CoA.
For each acyl-CoA at least two titrations and fittings were performed. To consider two or more titrations of the same acyl-CoA together and obtain a Kd value using all these titrations, both axes of the raw data were standardised using the fitted values of B, H and L in this way:
X axis standard=(raw X axis values)/Bfitted
Y axis standard=[(raw Y axis values)−Lfitted]/[Hfitted−Lfitted]
In this way all Y axis values should come to lie between 0 and 1 and the X axis value should be 1 at the point of saturation (FACI-24:acyl-CoA 1:1). Such adjusted data were pooled and fitted using DataFit. Typically, both H and B fitted to values close to 1 and L fitted to values close to 0. K was typically fitted to values somewhere between the two values obtained for the raw data.
This could be overcome by removing B from the fittable parameters list and instead setting it to a constant value of 1 and fitting again. This was typically done for both the raw and the standardised data.

[3] = target: T3, native bovine ACBP (Bos taurus, UniProt P07107); settings: isothermal titration microcalorimetry, >0.1 M salt; literature; read-out: KD for binding to native bovine ACBP; cited from earlier work
T3 sequence (P07107 1-87): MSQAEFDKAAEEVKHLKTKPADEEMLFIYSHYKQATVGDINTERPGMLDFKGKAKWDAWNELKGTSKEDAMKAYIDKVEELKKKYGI

[4] = target: T2, FACI-24; assay: Fluorescence emission change of FACI-24 on titration with CoA and acyl-CoA esters; format: binding, bovine; settings: emission maximum without ligand 510 nm; excitation 400 nm
Experimental: as §1, §2
The emission maximum of FACI-24 without ligand added was 510 nm and titration with CoA, C4:0-, C8:0-, C12:0-, […], C16:0- and C20:0-CoA caused 0, 16, 34, 42, 46 and 46 nm downshift in emission maximum, respectively (results not shown). C16:0-CoA induced a 5,5 fold increase in emission at 464 nm (FIG. 10).
as §3

[5] = target: T4, M24C-badan ACBP (Bos taurus, UniProt P07107, M25C); assay: Isothermal titration micro calorimetry of acyl-CoA binding to M24C-badan ACBP; design: species or system bovine; settings: isotermal titration micro calorimetry
T4 construct: made in house; host or cells: E. coli BL21(DE3)pLysS, pET3a vector
T4 sequence (P07107 2-87 M25C): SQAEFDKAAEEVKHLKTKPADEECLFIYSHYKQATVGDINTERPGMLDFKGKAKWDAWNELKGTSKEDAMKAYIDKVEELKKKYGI
Experimental: as §1, with “which: […]” for “which:”

[6] = Fluorescence response of the Phe-49_Cys49 badan derivative of bovine ACBP to ligands; format: binding; settings: badan group exposed to the environment
Experimental: Reference is made to FIG. 2. and FIG. 3. which depict the emission spectra of FACI24 and FACI53 titrated with increasing concentrations of CoA, C4-, C8-, C12-, C16- and C20-CoA esters. The addition of ligand and measurement of emission of FACI24 and FACI53 was performed as described in example 2. The increased addition of ligand to the mutated and modified proteins caused a proportional spectral change. The normal physiological binding profile was confirmed by direct binding studies using isoelectrical focusing as predicted in FIG. 4. […] The results clearly indicate that fluorescence emission at 470 nm may provide a measure for the concentration of free unbound long-chain(>C12)-acyl-CoA ester.
The two sensors presented herein together act as high sensitivity sensors in the chain length range from C8-CoA to C20-CoA. […]
Quantitative determination of binding affinities (KD) were performed by isothermal titration micro calorimetry as previously described (Faergeman et. al., 1996; Biochemistry 35, 14118-14126). Qualitative evaluation of relative binding affinities were determined by isoelectrical focusing using the Pharmacia Fast Gel system according to the prescriptions given by the manufacture. […] The fluorescence emission was measured on a SPEX FLOUROLOG (Industries Inc, Edison N.J., USA) with excitation at 400 nm and emission scan from 400 nm to 550 nm. […]

[7] = Fluorescence titration emission spectra of FACI-46 (negative control); format: binding
From the text: The strategy behind the design of the mutants was based on the tertiary structure of the bovine ACBP/acyl-CoA complex. Both Met-24 and Ala-53 interact directly with the acyl-chain of the acyl-CoA ligand, interacting with the omega-methyl group of long acyl-chains. Positioning of an environmentally sensitive group in one of these positions would therefore be expected to create ligand sensitive probes. Met-46 which is located outside the hydrophobic binding pocket in the loop between helix 2 and 3 was chosen to serve as a negative control which should not be sensitive to ligand binding.
as §2

Magnitude of emission of FACI-53, fold increase [1]: 2.7 fold
Fluorescence emission maximum of FACI-53 with ligand ([1]; 525 nm when no ligand present, excitation 400 nm): 492 nm
Relative emission of FACI-53 at 495 nm, fold increase ([1]; emission at 495 nm): 4.7 fold
Kd [2]: 10.2 ± 0.81 nM
Downshift in emission maximum of FACI-24 [4]: 42 nm
Kd [5]: 0.04 µM
Molecule: CCCCCCCCCCCC(=O)SCCNC(=O)CCNC(=O)[C@H](O)C(C)(C)COP(=O)(O)OP(=O)(O)OC[C@H]1O[C@@H](n2cnc3c(N)ncnc32)[C@H](O)[C@@H]1OP(=O)(O)O [C12:0-CoA, dodecanoyl-CoA]
Kd [3]: 0.04 µM

B1: Phe-49_Cys49 badan derivative of bovine ACBP: Phe49 to Cys mutant of bovine ACBP labelled with badan, badan group exposed to the environment (conjugate, UniProt P07107 2-87, looked up, variant F49C)
Acyl-CoA-binding protein: SQAEFDKAAEEVKHLKTKPADEEMLFIYSHYKQATVGDINTERPGMLDCKGKAKWDAWNELKGTSKEDAMKAYIDKVEELKKKYGI
modifications: badan label
notes: Phe49 to Cys mutant of bovine ACBP labelled with badan, badan group exposed to the environment
Fluorescence response to addition of ligands [6]: did not respond to addition of any of the ligands

B2: FACI-46: badan derivative of M46C-bovine ACBP, negative control (conjugate, UniProt P07107 2-87, looked up, variant M46C)
Acyl-CoA-binding protein: SQAEFDKAAEEVKHLKTKPADEEMLFIYSHYKQATVGDINTERPGCLDFKGKAKWDAWNELKGTSKEDAMKAYIDKVEELKKKYGI
modifications: badan label
notes: badan derivative of M46C-bovine ACBP, negative control
Emission spectra changes of FACI-46 with ligands (words) [7]: did not show any emission spectra changes with any of the ligands
Emission spectra changes of FACI-46 with ligands (words) ([7]; listed as FACI46): did not show changes in emission spectra with any of the tested ligands
